Source: patent US20220177484A1, “MACROCYCLES WITH ANTIOXIDANT AND NEUROPROTECTIVE ACTIVITIES” (INSTITUTO BIOMAR, S.A, priority 2019, published 2022)

Assays:
Assay type in all cases: cell-based
[1] = test system: cortical primary neurons (from C57BL6/J mice); assay: H2O2 production in neurons after excitotoxic NMDA stimulus (Amplex Red); settings: 100 μM NMDA 10 min, then compound 0.1, 1, 5 μM (FIG. 5)
Protocol: (§1) For NMDA receptors activation, neurons at 8 days in vitro were incubated with 100 μM NMDA for 10 minutes. Neurons were then washed and further incubated for 4 hours in culture medium with DMSO only (DMSO empty bar), DMSO and NMDA (DMSO filled bar) and with increasing quantities of GKK1032C, GKK1032, Pyrrocidine A, Pyrrocidine B, CL0661, CL0667 and CL0670. Concentrations of 0.1 μM, 1 μM, 5 μM. *: p-value <0.05 vs. DMSO+NMDA (student's test).
(§2) Experiments were performed in […] cortical primary neurons, obtained as was previously described (Herrero-Mendez A. et al., Nat. Cell. Biol. 11:747-752, 2009). After 7 or 8 days in B27-MAO culture, neurons (from C57BL6/J mice) were incubated in the presence of N-methyl-D-aspartate (NMDA, a H2O2 production promoter; 100 μM) for 10 minutes, followed by a PBS washing step and submitted to a 24-hour B27 incubation step in the absence (DMSO) or presence of increasing amounts of GKK1032C, GKK1032, Pyrrocidine B, Pyrrocidine A, CL0661, CL0665, CL0667 and CL0670 (0.1 μM, 1 μM and 5 μM). B27-MAO stands for Neurobasal medium, supplemented with B27 supplement in the absence of antioxidants (minus antioxidants, MAO).
The release of H2O2 was measured using the fluorescent method Amplex© Red hydrogen peroxide/peroxidase assay kit (Invitrogen, catalog number A22188) using a multiwell fluorescence reader (Varioskan, Thermo Scientific).
(§3) The data are presented as the mean values±standard deviation of the mean from n=3.

[2] = test system: cortical primary neurons (from C57BL6/J mice); assay: Caspase-3 activity (neuronal apoptosis) after excitotoxic NMDA stimulus; settings: 100 μM NMDA 10 min, then 24 h with compound 0.1, 1, 5 μM (FIG. 6)
Protocol: as §1, with “24” for “4”, “Pyrrocidine” for “Pyrrocidine A, Pyrrocidine”, “CL0661, CL0665,” for “CL0661,”, “pvalue” for “p-value”
as §2
Neuronal apoptosis was determined by measuring caspase-3 activity (Veas-Perez de Tudela et al. Sci Rep 5:18180; doi:10.1038/srep18180 (2015).
as §3

[3] = test system: rat cortical primary neurons; assay: H2O2 formation in cortical primary neurons treated with L-BSO and rotenone (Amplex Red); settings: compound 1 μg/ml together with L-BSO and rotenone for 6 h, washed, recorded 2 h (FIG. 2)
Protocol: The data are presented as the mean values±[…] of the mean (SEM) from n=6 (i.e., 6 independent wells measured independently).
After this period, cells were again washed and determined the rate of H2O2 production during the next 2 h.

| SMILES | H2O2 production in neuron cells after NMDA [1] | neuronal apoptosis (caspase-3 activity) after NMDA [2] | rate of H2O2 formation [3] |
| --- | --- | --- | --- |
| C=CC1(C)C=C(C)C2C3C(Oc4ccc(cc4)CC45OC4(C(=O)NC5=O)C(=O)C31)C1C(C)CC(C)CC21C (stereo not drawn) [CL0661] | successful in preventing H2O2 from being produced | effective in protecting neuron cells against apoptosis | – |
| CC1=CC2(C)C(C)O/C3=C4\C(=O)NC(=O)C4Cc4ccc(cc4)OC4C(C32)C1C1(C)CC(C)CC(C)C41 (stereo not drawn) [CL0665] | – | effective in protecting neuron cells against apoptosis | – |
| C=CC1(C)C=C(C)C2C3C(Oc4ccc(cc4)CC4C(=O)N(CC#N)C(=O)C4C(=O)C31)C1C(C)CC(C)CC21C (stereo not drawn) [CL0667] | successful in preventing H2O2 from being produced | effective in protecting neuron cells against apoptosis | – |
| C=C[C@@]1(C)C=C(C)C2C3[C@H](Oc4ccc(cc4)CC4C(=O)NC(=O)[C@H]4C(=O)[C@H]31)C1[C@@H](C)C[C@@H](C)C[C@@]21C (stereo partly drawn) [GKK1032, reference compound] | successful in preventing H2O2 from being produced | effective in protecting neuron cells against apoptosis | significantly impaired |
| C=C[C@@H]1C=C(C)[C@H]2[C@@H]3[C@H](Oc4ccc(cc4)C[C@@]4(O)C=C(C(=O)N4)C(=O)[C@@H]13)[C@@H]1[C@@H](C)C[C@@H](C)C[C@]12C [Pyrrocidine A, reference compound] | successful in preventing H2O2 from being produced | – | significantly impaired |
| C=C[C@@H]1C=C(C)[C@H]2[C@@H]3[C@H](Oc4ccc(cc4)C[C@@]4(O)C[C@H](C(=O)N4)C(=O)[C@@H]13)[C@@H]1[C@@H](C)C[C@@H](C)C[C@]12C [Pyrrocidine B, reference compound] | successful in preventing H2O2 from being produced | effective in protecting neuron cells against apoptosis | – |
